Drawing on patent US7713994B2 (Wyeth LLC, priority 2005, dated 2010), this text covers IC50 for seven compounds.

pIC50: −log10 of the molar value. Where two headings read alike, the source gives them in different places.

For one assay, the target named is T1, cyclin D1/cdk 4 enzyme (Homo sapiens, UniProt P11802).
T1 construct: made in house; host or cells: Sf9 insect cells, recombinant baculovirus
Nature of the assay: CDK4 ELISA kinase assay (phospho-Rb ser 795 detection). Format: biochemical. To be noted: In Vitro Enzyme Assays, 200 μM ATP, read-out: CDK4 IC50. Summed up:
(§1)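 GST-Rb C-terminal fragment coated on wells; kinase reaction: 200 μM ATP, 0.5 mg/ml BSA, HEPES pH 7.5, 10 mM MgCl2, baculovirus/Sf9 cyclin-CDK, 30° C, 1 h. Readout anti-phospho-Rb Ser795, HRP, TMB, A450. Test compound 10 ug/ml final.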
On the technique in general: In an ELISA, binding on a coated surface is turned into a signal by an enzyme label.

In a further assay the target is T2, cyclin E/CDK2 enzyme (Homo sapiens, UniProt P24941).
T2 construct: made in house; host or cells: Sf9 insect cells, recombinant baculovirus
Nature of the assay: CDK2 ELISA kinase assay (phospho-Rb ser 795 detection). To be noted: In Vitro Enzyme Assays, read-out: CDK2 IC50. Format: biochemical. Summed up: as §1

The target of the next assay is T3, cyclin B/CDK1 enzyme (Homo sapiens, UniProt P06493).
T3 construct: purchased New England BioLabs; host or cells: Sf9 insect cells, recombinant baculovirus
T3 sequence (P06493 whole entry): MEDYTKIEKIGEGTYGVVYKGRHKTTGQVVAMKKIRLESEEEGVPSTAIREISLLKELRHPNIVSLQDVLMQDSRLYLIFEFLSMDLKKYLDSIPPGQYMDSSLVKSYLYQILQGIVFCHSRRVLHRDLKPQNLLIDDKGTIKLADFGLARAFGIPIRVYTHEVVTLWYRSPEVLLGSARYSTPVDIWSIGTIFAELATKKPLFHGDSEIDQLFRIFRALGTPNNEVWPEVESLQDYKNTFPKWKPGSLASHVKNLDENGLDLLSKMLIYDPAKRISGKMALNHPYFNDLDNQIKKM
T3 sequence (P14635 whole entry partner): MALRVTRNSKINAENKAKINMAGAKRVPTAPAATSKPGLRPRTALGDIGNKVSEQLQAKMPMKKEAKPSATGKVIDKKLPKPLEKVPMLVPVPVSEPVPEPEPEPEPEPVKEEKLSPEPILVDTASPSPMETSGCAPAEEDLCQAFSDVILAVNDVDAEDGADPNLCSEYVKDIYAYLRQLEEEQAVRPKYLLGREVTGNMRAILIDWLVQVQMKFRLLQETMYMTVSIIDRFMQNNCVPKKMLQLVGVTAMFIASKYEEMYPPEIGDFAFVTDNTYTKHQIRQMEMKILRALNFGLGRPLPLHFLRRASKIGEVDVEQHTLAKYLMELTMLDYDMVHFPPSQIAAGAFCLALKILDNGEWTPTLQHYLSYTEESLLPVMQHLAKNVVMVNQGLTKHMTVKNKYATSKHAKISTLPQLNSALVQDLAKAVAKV
Nature of the assay: CDK1 ELISA kinase assay (phospho-Rb ser 795 detection). Format: biochemical. To be noted: In Vitro Enzyme Assays, read-out: CDK1 IC50. Summed up:
as §1

Another assay has as its system BT474. The experiment in a line: Cytotoxicity assay (SRB), BT474. Format: cell-based. To be noted: BT474 cells, SRB, 6 days, read-out: In Vitro Cellular Activity IC50 BT474. Summed up:
(§2)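 Protein staining with sulforhodamine B after cold TCA fixation served as the survival endpoint (A540, relative to untreated cells). Before staining, cells were incubated with compound at 37 °C, 7% CO2 for 3 days, or 6 days for BT474.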

The subject of another assay is HCT-116. Nature of the assay: Cytotoxicity assay (SRB), HCT-116. Format: cell-based. Particulars: HCT116 cells, SRB, three days, read-out: In Vitro Cellular Activity IC50 HCT116. Summed up:
as §2

In a further assay the test system is LoVo. Nature of the assay: Cytotoxicity assay (SRB), LoVo. Format: cell-based. Particulars: LoVo cells, SRB, three days, read-out: In Vitro Cellular Activity IC50 LOVO. Summed up:
as §2

Another assay deals with MCF-7. Nature of the assay: Cytotoxicity assay (SRB), MCF-7. Format: cell-based. Particulars: MCF-7 cells, SRB, three days, read-out: In Vitro Cellular Activity IC50 MCF-7. Summed up: as §2

T1 sequence (P11802 whole entry, species assumed): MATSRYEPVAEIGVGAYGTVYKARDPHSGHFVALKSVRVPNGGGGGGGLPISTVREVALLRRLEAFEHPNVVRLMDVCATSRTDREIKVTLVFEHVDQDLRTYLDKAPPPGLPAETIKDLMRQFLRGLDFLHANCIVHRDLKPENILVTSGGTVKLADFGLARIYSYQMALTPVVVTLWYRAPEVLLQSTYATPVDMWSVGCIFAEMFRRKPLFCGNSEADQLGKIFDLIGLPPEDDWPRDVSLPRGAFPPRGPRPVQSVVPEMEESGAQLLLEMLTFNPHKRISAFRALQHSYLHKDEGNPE
T1 sequence (P24385 whole entry partner, species assumed): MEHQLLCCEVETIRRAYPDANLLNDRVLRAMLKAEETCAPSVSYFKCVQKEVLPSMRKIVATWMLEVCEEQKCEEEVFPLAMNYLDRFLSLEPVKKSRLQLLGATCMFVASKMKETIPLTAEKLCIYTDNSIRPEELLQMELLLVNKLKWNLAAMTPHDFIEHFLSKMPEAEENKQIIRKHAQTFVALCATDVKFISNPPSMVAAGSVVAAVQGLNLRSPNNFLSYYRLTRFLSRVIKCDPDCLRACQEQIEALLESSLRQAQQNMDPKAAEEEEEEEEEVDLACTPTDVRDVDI

For orientation: pIC50 means −log10 of the IC50, conventionally taken in molar units. As for `O=C1NC(=O)c2ccc(I)cc2/C1=C/Nc1ccc(CN2CCC[C@@H]2CO)cc1` [Example 368, D-4-{[4-(2-Hydroxymethyl-pyrrolidin-1-ylmethyl)-phenylamino]-methylene}-6-iodo-4H-isoquinoline-1,3-dione], the pIC50 is 6.29 at cyclin D1/cdk 4 enzyme; 4.52 at cyclin E/CDK2 enzyme; less than 4.30 at cyclin B/CDK1 enzyme; 6.30 in the assay with BT474 (Homo sapiens, BT-474, 144 h); 5.49 in the assay on HCT-116 (Homo sapiens, HCT-116, 72 h); 5.43 in the assay with LoVo (Homo sapiens, LoVo, 72 h). The pIC50 in the assay on MCF-7 (Homo sapiens, MCF7, 72 h) was 5.74.

Take `CC(C)(O)[C@H]1CCCN1Cc1ccc(N/C=C2\C(=O)NC(=O)c3ccc(I)cc32)cc1` [Example 369, D-4-({4-[2-(1-Hydroxy-1-methyl-ethyl)-pyrrolidin-1-ylmethyl]-phenylamino}-methylene)-6-iodo-4H-isoquinoline-1,3-dione]: the negative-log IC50 (pIC50) at cyclin D1/cdk 4 enzyme was 6.34; on cyclin E/CDK2 enzyme, less than 4.30; on cyclin B/CDK1 enzyme, less than 4.30; with BT474 (Homo sapiens, BT-474, 144 h), 5.92; in the assay with HCT-116 (Homo sapiens, HCT-116, 72 h) it was 5.37; in the assay on LoVo (Homo sapiens, LoVo, 72 h), 5.30. In addition, the negative-log IC50 (pIC50) in the assay with MCF-7 (Homo sapiens, MCF7, 72 h) is 5.77.

For the compound `COC(C)C1CCCN1Cc1ccc(N/C=C2\C(=O)NC(=O)c3ccc(I)cc32)cc1` (stereo not shown) [Example 375, 6-Iodo-4-({4-[2-(1-methoxy-ethyl)-pyrrolidin-1-ylmethyl]-phenylamino}-methylene)-4H-isoquinoline-1,3-dione], the pIC50 on cyclin D1/cdk 4 enzyme is 6.41; at cyclin E/CDK2 enzyme it was less than 4.30; at cyclin B/CDK1 enzyme, less than 4.30; with BT474 (Homo sapiens, BT-474, 144 h) it was 6.28; with HCT-116 (Homo sapiens, HCT-116, 72 h), 5.41; in the assay on LoVo (Homo sapiens, LoVo, 72 h), 5.49. Further, the pIC50 in the assay on MCF-7 (Homo sapiens, MCF7, 72 h) was 6.15.

Take `O=C1NC(=O)c2ccc(I)cc2/C1=C/Nc1ccc(CN2CCC[C@H]2CO)cc1` [Example 376, L-4-{[4-(2-Hydroxymethyl-pyrrolidin-1-ylmethyl)-phenylamino]-methylene}-6-iodo-4H-isoquinoline-1,3-dione]: the pIC50 on cyclin D1/cdk 4 enzyme is 6.37; on cyclin E/CDK2 enzyme, less than 4.30; at cyclin B/CDK1 enzyme, less than 4.30; in the assay on BT474 (Homo sapiens, BT-474, 144 h) it was 6.43; with HCT-116 (Homo sapiens, HCT-116, 72 h), 5.44; in the assay on LoVo (Homo sapiens, LoVo, 72 h), 5.59. Besides, the negative-log IC50 (pIC50) in the assay on MCF-7 (Homo sapiens, MCF7, 72 h) was 6.26.

Turning to `O=C1NC(=O)c2ccc(I)cc2/C1=C/Nc1ccc(N2CCNCC2)cc1` [Example 378, (4Z)-6-Iodo-4-{[(4-piperazin-1-ylphenyl)amino]methylene}isoquinoline-1,3(2H,4H)-dione], the pIC50 was 6.19 on cyclin D1/cdk 4 enzyme; 4.81 on cyclin E/CDK2 enzyme; 4.69 at cyclin B/CDK1 enzyme; 5.54 with BT474 (Homo sapiens, BT-474, 144 h); 5.82 in the assay with HCT-116 (Homo sapiens, HCT-116, 72 h); 5.59 in the assay with LoVo (Homo sapiens, LoVo, 72 h). The negative logarithm of the IC50 (pIC50) in the assay on MCF-7 (Homo sapiens, MCF7, 72 h) was 5.96.

With `CCCOc1ccc(CN/C=C2\C(=O)NC(=O)c3ccc(I)cc32)nc1Br` [Example 379, (Z)-4-(((6-Bromo-5-propoxypyridin-2-yl)methylamino)methylene)-6-iodoisoquinoline-1,3(2H,4H)-dione], the pIC50 at cyclin D1/cdk 4 enzyme is 6.16; at cyclin E/CDK2 enzyme, less than 4.30; at cyclin B/CDK1 enzyme, less than 4.30; in the assay on BT474 it was 5.85; with HCT-116 it was 5.68; in the assay with LoVo, 5.59. In the assay with MCF-7, the pIC50 was 4.85.

`C/C=C/C(=O)Nc1ccc2c(c1)/C(=C/Nc1ccc(N3CCN(C)CC3)cc1)C(=O)NC2=O` [Example 384, (2E)-N-[(4Z)-4-({[4-(4-Methylpiperazin-1-yl)phenyl]amino}methylene)-1,3-dioxo-1,2,3,4-tetrahydroisoquinolin-6-yl]but-2-enamide]: the pIC50 at cyclin D1/cdk 4 enzyme was less than 4.30; at cyclin E/CDK2 enzyme, less than 4.30; at cyclin B/CDK1 enzyme, 4.41; in the assay with BT474 (Homo sapiens, BT-474, 144 h), 4.59; in the assay on HCT-116 (Homo sapiens, HCT-116, 72 h) it was 4.92; in the assay on LoVo (Homo sapiens, LoVo, 72 h), 4.72. Moreover, the pIC50 in the assay on MCF-7 (Homo sapiens, MCF7, 72 h) is 4.62.
